Assay results reported in patent publication US20230048888A1, “USE OF TRIAZOLOTRIAZINE DERIVATIVE IN TREATMENT OF DISEASES” (ZHEJIANG VIMGREEN PHARMACEUTICALS, LTD., priority 2019, published 2023).

Assays:
adenosine receptors A2A = molecular target: T1, adenosine receptors A2A (Homo sapiens, UniProt P29274); assay: TR-FRET-based cAMP accumulation assay in hADORA2A-HEK293 cells; format: cell-based; details: NECA at EC80, hADORA2A-HEK293, read-out: A2AR activity (IC50)
T1 construct: expressed in transfected cells; host or cells: HEK293 (hADORA2A-HEK293)
Procedure: The inhibitory effects of the test compounds on the adenosine receptors A2A were evaluated by TR-FRET-based cAMP accumulation assay. The method included, in HEK293 cells (hADORA2A-HEK293) expressing A2AR, the production of cAMP stimulated by NECA and the inhibitory effect of A2A receptor antagonists on cAMP. All cells were cultured in a complete medium at 37° C. in the presence of 5% CO2. After being digested with trypsin, the cells were collected by centrifugation at 200 g for 5 minutes. The cells were resuspended in a fresh complete medium, and then the cell viability was counted by a trypan blue exclusion method. […] The cells were diluted with Hank's buffer solution containing HEPES (5 mM), BSA stabilizer (0.1%) and Rolipram (10 μM), then added to a 384-well white non-transparent plate (cells/well, 10 μl/well), and incubated with the test compound at an appropriate concentration (11 concentrations) for 20 minutes at room temperature. Then, the A2A receptor agonist NECA (final concentration=EC80, which was determined in the same experiment performed earlier) was added to the sample, and the sample was incubated again at 37° C. for 30 minutes.
An inhibition rate (%) was calculated according to the following formula, and an IC50 value was calculated from a concentration-inhibition (%) curve after log conversion.
A curve corresponding to the dose was fitted by using XLfit software and the IC50 was determined.

[1] = Pharmacokinetics of test compounds in SD rats (15.2; IV and PO, mixed administration); format: in vivo; details: male, Sprague-Dawley, rat, plasma, SD rats, PO; for AUC(0-t): 2 mg/kg, mixed administration (6 compounds per group)
Procedure: Administration dose: the compounds in this group were all administered in a mixed way, with 6 compounds in each group for mixed PO administration.
Blood was collected based on the blood collection points in the test protocol. 50 μL of plasma sample was added with acetonitrile (containing 5 ng/mL Verapamil) being 3 folds of the volume thereof; the resulting mixture was vortexed for 30 s, and then centrifuged for 15 min at 15,000 rpm at 4° C.; and 10μ L of supernatant was taken for LC-MS/MS analysis.
For each compound, 3 male SD rats weighing 200-220 g were fasted for one night before dosage, but had access to water.
Orally intragastric administration: before intragastric administration and at 0.083 h, 0.25 h, 0.5 h, 1 h, 2 h, 4 h, 8 h and 24 h after administration (for Compounds 40, 27, 40 and 47), or at 0.25 h, 0.5 h, 1 h, 4 h, 6 h and 8 h after administration (for Compounds 44 and 48), orbital blood was collected and put in a test tube that was treated with heparin sodium, and after centrifugation, the supernatant plasma was collected for LC-MS/MS analysis.
The plasma samples were processed according to the method for “sample treatment” and then analyzed by LC-MS/MS, accompanied with the standard curve and quality control samples. At a time point when the upper limit of quantification was exceeded, the samples were diluted 10 or 100 folds for analysis. All measured data were collected and processed by Analyst 1.6.3 software, and the data were calculated and processed with Microsoft Excel. With DAS 3.2.8 software, the pharmacokinetic parameters were calculated by the statistical moment method. The pharmacokinetic parameters mainly include Tmax, t1/2, Cmax, AUC(0-t), etc.

[2] = Pharmacokinetics of Compounds 27, 40, 22 and 41 in ICR mice in different modes of administration; format: in vivo; details: for AUC(0-t) / Cmax / half-life: ICR
Description: WinNonlin® 6.4 was used as the calculation software for PK parameters.

[3] = Pharmacokinetics of test compounds in SD rats (15.2; IV and PO, mixed administration); format: in vivo; details: PO, 3 mg/kg
[4] = male, Sprague-Dawley, rat, plasma

T1 sequence (P29274 whole entry): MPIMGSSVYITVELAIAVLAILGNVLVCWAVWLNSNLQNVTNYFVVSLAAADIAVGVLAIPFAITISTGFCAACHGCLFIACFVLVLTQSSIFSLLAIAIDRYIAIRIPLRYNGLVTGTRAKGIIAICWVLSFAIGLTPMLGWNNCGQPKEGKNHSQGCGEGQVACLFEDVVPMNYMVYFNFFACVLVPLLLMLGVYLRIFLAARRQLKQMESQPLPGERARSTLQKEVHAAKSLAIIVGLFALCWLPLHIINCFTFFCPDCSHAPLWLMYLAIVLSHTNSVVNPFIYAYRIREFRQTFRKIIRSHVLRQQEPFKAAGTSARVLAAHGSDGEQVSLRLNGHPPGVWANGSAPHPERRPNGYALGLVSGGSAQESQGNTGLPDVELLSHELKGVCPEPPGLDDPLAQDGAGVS

SMILES | IC50 (adenosine receptors A2A) | AUC(0-t) [1] | further results
CC1(C(=O)Nc2ccc(CCNc3nc(N)n4nc(-c5ccco5)nc4n3)cc2)CCOCC1 [Compound 6, N-(4-(2-((7-amino-2-(furan-2-yl)-[1,2,4]triazolo[1,5-a][1,3,5]triazin-5-yl)amino)ethyl)phenyl)-4-methyltetrahydro-2H-pyran-4-carboxamide] | 9.24 nM | – | –
CN(C)C(=O)c1ccc(CCNc2nc(N)n3nc(-c4ccco4)nc3n2)cc1 [Compound 38, 4-(2-(7-amino-2-(furan-2-yl)-[1,2,4]triazolo[1,5-a][1,3,5]triazine-5-ylamino)ethyl)-N,N-dimethylbenzamide] | 8.71 nM | – | –
CCn1nnc(-c2ccc(CCNc3nc(N)n4nc(-c5ccco5)nc4n3)cc2)n1 [Compound 41, N5-(4-(2-ethyl-2H-tetrazol-5-yl)phenethyl)-2-(furan-2-yl)-[1,2,4]triazolo[1,5-a][1,3,5]triazine-5,7-diamine] | 7.87 nM | 1890 ng·h/mL | AUC(0-t) ([2]; mouse, in vivo, iv, 1 mg/kg): 1110 ng·h/mL; Cmax ([2]; mouse, in vivo, iv, 1 mg/kg): 2230 ng/mL; half-life ([2]; mouse, in vivo, iv, 1 mg/kg): 0.28 h; AUC(0-t) ([2]; mouse, in vivo, po, 5 mg/kg): 1800 ng·h/mL; Cmax ([2]; mouse, in vivo, po, 5 mg/kg): 1300 ng/mL; half-life ([2]; mouse, in vivo, po, 5 mg/kg): 1.85 h; Cl—F—pred ([2]; PO, 5 mg/kg): 48.7 mL/min/kg; F ([2]; PO, 5 mg/kg): 32.51%; clearance ([2]; mouse, in vivo, IV, 1 mg/kg, read-out: Cl—pred (converted)): 15.2 mL/min/kg
CC(C)n1nnc(-c2ccc(CCNc3nc(N)n4nc(-c5ccco5)nc4n3)cc2)n1 [Compound 42, N5-(4-(2-isopropyl-2H-tetrazol-5-yl)phenethyl)-2-(furan-2-yl)-[1,2,4]triazolo[1,5-a][1,3,5]triazine-5,7-diamine] | 9.08 nM | 818 ng·h/mL | –
COCCn1nnc(-c2ccc(CCNc3nc(N)n4nc(-c5ccco5)nc4n3)cc2)n1 [Compound 47, N5-(4-(2-(2-methoxyethyl)-2H-tetrazol-5-yl)phenethyl)-2-(furan-2-yl)-[1,2,4]triazolo[1,5-a][1,3,5]triazine-5,7-diamine] | 13.9 nM | 779 ng·h/mL | half-life ([1]; 3 mg/kg, read-out: T½ (converted)): 2.25 h; Cl_F_pred [3]: 23.1623 mL/min/kg; AUC(0-t) [3, 4]: 1500 ng·h/mL; Cmax [3, 4]: 538 ng/mL

Stronger by IC50 (adenosine receptors A2A), values ahead:

IC50 (adenosine receptors A2A) | AUC(0-t) [1] | SMILES | further results
7.07 nM | 1830 ng·h/mL | Nc1nc(NCCc2ccc(NC3COC3)cc2)nc2nc(-c3cccc(F)c3)nn12 [Compound 37, 2-(3-fluorophenyl)-N5-(4-(oxetan-3-ylamino)phenethyl)-[1,2,4]triazolo[1,5-a][1,3,5]triazine-5,7-diamine] | –
6.77 nM | 757 ng·h/mL | COCCOCCNc1ccc(CCNc2nc(N)n3nc(-c4ccco4)nc3n2)cc1 [Compound 28, 2-(furan-2-yl)-N5-(4-((2-(2-methoxyethoxy)ethyl)amino)phenethyl)-[1,2,4]triazolo[1,5-a][1,3,5]triazine-5,7-diamine] | –
4.88 nM | 1600 ng·h/mL | COCC(COC)Nc1ccc(CCNc2nc(N)n3nc(-c4ccco4)nc3n2)cc1 [Compound 35, N5-(4-(1,3-dimethoxypropane-2-ylamino)phenethyl)-2-(furan-2-yl)-[1,2,4]triazolo[1,5-a][1,3,5]triazine-5,7-diamine] | –
3.83 nM | 441 ng·h/mL | Nc1nc(NCCc2ccc(NC3CCOCC3)cc2)nc2nc(-c3ccco3)nn12 [Compound 18, 2-(furan-2-yl)-N5-(4-((tetrahydro-2H-pyran-4-yl)amino)phenethyl)-[1,2,4]triazolo[1,5-a][1,3,5]triazine-5,7-diamine] | –
3.52 nM | – | CCOCCNc1ccc(CCNc2nc(N)n3nc(-c4ccco4)nc3n2)cc1 [Compound 30, N5-(4-((2-ethoxyethyl)amino)phenethyl)-2-(furan-2-yl)-[1,2,4]triazolo[1,5-a][1,3,5]triazine-5,7-diamine] | –
1.62 nM | 603 ng·h/mL | COCCN(CCOC)c1ccc(CCNc2nc(N)n3nc(-c4ccco4)nc3n2)cc1 [Compound 21, N5-(4-(bis(2-methoxyethyl)amino)phenethyl)-2-(furan-2-yl)-[1,2,4]triazolo[1,5-a][1,3,5]triazine-5,7-diamine] | –
